From patent US10954262B2, “Tunicamycin analogues” (Oxford University Innovation Limited, priority 2017, dated 2021)
≈ marks a conversion by molar mass, not a printed value. Structures can show the parent of a compound that is named as a salt. Where two headings read alike, the source gives them in different places.

Experiments:
[1] = tested on: Bacillus subtilis (EC1524); test: Kirby-Bauer disc diffusion susceptibility test; type: cell-based; conditions: for Antibacterial activity in disc diffusion test: 5 μg per disc; for zone of inhibition at 5 µg/disc: 6 mm disc impregnated with 5 μg, 20 hours, 35° C., read-out: Diffusion distance (zone diameter)
Method: (§1) Bioactivity was assessed using the Kirby-Bauer disc diffusion susceptibility test. Oxoid Blank Discs were impregnated with the desired test substance. A 0.5 McFarland standard inoculum was prepared by adding 3-5 single colonies to 10 mL MH broth in a 15 mL falcon tube and standardised to 0.5 McFarland standard. The inoculum was used within 10 minutes. A sterile cotton swab was dipped in the inoculum, gently pressed against the side of the tube to remove excess liquid, and generously streaked on MH agar plate to fully cover the plate. The impregnated disc was carefully placed on the agar. The plate was incubated at 35° C. for 20 hrs overnight. A digital calliper was used to measure the zone diameter. The recorded zone diameter is an average of three zone diameters measured of one zone.
(§2) Each 6 mm disc was impregnated with 5 μg of the relevant compound (TM, A, B, C, D, or any of E1 to E7), and the diffusion zone recorded after 20 hours.
(§3) Results are shown for E2 to E7 and TM. Values quoted are zone diameters, with larger numbers indicating higher antibacterial activity.

[2] = tested on: Bacillus cereus (ATCC11778); test: Kirby-Bauer disc diffusion susceptibility test; type: cell-based; conditions: for Antibacterial activity in disc diffusion test: 5 μg per disc; for zone of inhibition at 5 µg/disc: ATCC11778, 6 mm disc impregnated with 5 μg, 20 hours, 35° C., read-out: Diffusion distance (zone diameter)
Method: as §1, §2, §3

[3] = tested on: Pseudomonas aeruginosa (ATCC27853); test: microbe, parasite or virus in culture; type: cell-based
[4] = tested on: Bacillus subtilis (EC1524); test: microbe, parasite or virus in culture; type: cell-based; conditions: for MIC: MH broth, 35° C., 20-24 hours; for IC50: OD600 dose-response curve; for MBC: additional 20 hours on MH agar
HepG2 liver cells = test: Cell proliferation assay / cell morphology (cytotoxicity); type: cell-based, human; conditions: for Minimum lethal dose: HepG2; for viable cells: human
Method: (§4) Underlying scaffolds A, B, C and D and lipid-varied analogues E1 to E7 were assayed for cytotoxicity towards human liver cells (Hep2G) and human kidney cells (HEK293).
(§5) Mammalian cells were cultured in DMEM medium supplemented with 10% heat inactivated fetal bovine serum (FBS, v/v). The cultures were maintained in a humidified incubator at 37° C. in 5% CO2/95% air. FBS was reduced to 2% for the cell proliferation assay.
(§6) In sterile 96-well plate, each well was seeded with 1×10^5 cells. The cells were then grown confluent overnight in 100 μL DMEM with 10% FBS. The medium was replenished with DMEM with 2% FBS and added vehicle control or test substance the next day. For test substance in methanol, stock was added to 25 μL of DMEM with 2% FBS or PBS and placed in a laminar flow hood to let the methanol evaporate (about 1-3 hrs). Once the methanol has evaporated, DMEM with 2% FBS was added to final volume of 100 μL of desired test concentration. […] Cells were grown for additional 24 hrs. The cell viability was determined by using a Promega CellTiter 96 AQueous One Solution Cell Proliferation Assay System following the manufacturer's protocol.

HEK293 kidney cells = test: as above; type: cell-based, human; conditions: for Minimum lethal dose: HEK293; for viable cells: human
Method: as §4, §5, §6

[5] = tested on: Bacillus cereus (ATCC11778); test: microbe, parasite or virus in culture; type: cell-based; conditions: for MIC: MH broth, 35° C., 20-24 hours; for IC50: OD600 dose-response curve; for MBC: additional 20 hours on MH agar
[6] = tested on: Pseudomonas aeruginosa (ATCC27853); test: Kirby-Bauer disc diffusion susceptibility test; type: cell-based; conditions: 6 mm disc, 5 μg
Method: as §1, §2
Underlying scaffolds A, B, C and D and lipid-varied analogues E1 to E7 were assayed for potency against Pseudomonas aeruginosa (ATCC27853), according to the methods of Example 2. Results of the Kirby-Bauer disc diffusion susceptibility test conducted using Pseudomonas aeruginosa (ATCC27853) as a test organism are shown in FIG. 2 and in Table 3. MIC, MBC and IC50 values were also obtained as in Example 2.

[7] = Single-dose PK study, intraperitoneal injection; type: in vivo; conditions: mice
Method: The initial dose was 30 mg/kg. The x-axis indicates the time in hours after the initial injection and the y-axis indicates the blood plasma concentration of TM-8 in μg/mL in the mice.
A single-dose PK study was done using 16 mice at a dose of 30 mg/kg for the TM-8 analogue, di-N-octanoyl-tunicamycin. […] This study confirmed that the formulation was suitable for injections, and the drug is stable enough in physiological conditions.

[8] = tested on: Mycobacterium tuberculosis H37RV; test: MIC in GAST/Fe and 7H9/ADC/Tw growth medium at 1 and 2 weeks; type: cell-based; conditions: for MIC: Mycobacterium tuberculosis, H37RV

Compound	Antibacterial activity in disc diffusion test [1]	Antibacterial activity in disc diffusion test [2]	IC50 [3] [µg/mL]	MBC [3] [µg/mL]	MIC [3] [µg/mL]	MIC [4] [µg/mL]	IC50 [4] [µg/mL]	MBC [4] [µg/mL]	Minimum lethal dose (HepG2 liver cells) [µg/mL]	viable cells (HepG2 liver cells) [%]	Minimum lethal dose (HEK293 kidney cells) [µg/mL]	viable cells (HEK293 kidney cells) [%]	MIC [5] [µg/mL]	IC50 [5] [µg/mL]	MBC [5] [µg/mL]	zone of inhibition at 5 µg/disc [1] [mm]	Diffusion distance [6] [mm]	zone of inhibition at 5 µg/disc [2] [mm]	further results
CC(=O)N[C@H]1C(O)O[C@H](C[C@@H](O)[C@@H]2O[C@@H](n3ccc(=O)[nH]c3=O)[C@H](O)[C@@H]2O)C(O)C1O (some centres unmarked) [A, N-acetyl-tunicamyl-uracil]	completely inactive	completely inactive	–	–	–	–	–	–	–	–	–	–	–	–	–	–	–	–	–
CC(C)(C)OC(=O)NC1C(O)[C@H](O)C(CO)O[C@@H]1OC1O[C@H](C[C@@H](O)[C@@H]2O[C@@H](n3ccc(=O)[nH]c3=O)[C@H](O)[C@@H]2O)C(O)C(O)[C@H]1NC(=O)OC(C)(C)C (stereo partly drawn) [B, 10′,2″-Di-N-Boc-α-D-glucosamine-(1″-11′)-tunicamyl Uracil]	completely inactive	completely inactive	–	–	–	–	–	–	–	–	–	–	–	–	–	–	–	–	–
CC(=O)NC1C(O)[C@H](O)C(CO)O[C@@H]1OC1O[C@H](C[C@@H](O)[C@@H]2O[C@@H](n3ccc(=O)[nH]c3=O)[C@H](O)[C@@H]2O)C(O)C(O)[C@H]1NC(C)=O (stereo partly drawn) [C, α-D-N-acetylglucosamine-(1″-11′)-N-acetyl Tunicamyl Uracil]	completely inactive	completely inactive	–	–	–	–	–	–	–	–	–	–	–	–	–	–	–	–	–
CC(C)=CCC[C@H](C)CC(=O)NC1C(OC2OC(C[C@@H](O)[C@H]3O[C@@H](n4ccc(=O)[nH]c4=O)[C@H](O)[C@@H]3O)C(O)C(O)[C@H]2NC(=O)C[C@@H](C)CCC=C(C)C)OC(CO)[C@@H](O)C1O (some centres unmarked) [Compound E1, Di-N-citronoyl-tunicamycin]	–	–	70.3 (≈ 80.7 µM)	> 400	200 (≈ 230 µM)	6.25 (≈ 7.18 µM)	0.415 (≈ 0.476 µM)	> 100	>400	> 75	>400	> 75	100 (≈ 115 µM)	6.29 (≈ 7.22 µM)	> 200	–	–	–	–
CCCCCCC(=O)NC1C(OC2OC(C[C@@H](O)[C@H]3O[C@@H](n4ccc(=O)[nH]c4=O)[C@H](O)[C@@H]3O)C(O)C(O)[C@H]2NC(=O)CCCCCC)OC(CO)[C@@H](O)C1O (some centres unmarked) [Compound E2, Di-N-heptanoyl tunicamycin]	–	–	62.4 (≈ 79 µM)	> 400	100 (≈ 126 µM)	6.25 (≈ 7.9 µM)	3.39 (≈ 4.29 µM)	> 50	>400	> 75	>400	> 75	100 (≈ 126 µM)	13.3 (≈ 16.9 µM)	> 200	10	7	–	–
CCCCCCCC(=O)NC1C(OC2OC(C[C@@H](O)[C@H]3O[C@@H](n4ccc(=O)[nH]c4=O)[C@H](O)[C@@H]3O)C(O)C(O)[C@H]2NC(=O)CCCCCCC)OC(CO)[C@@H](O)C1O (some centres unmarked) [Compound E3, Di-N-octanoyl-tunicamycin]	–	–	46.5 (≈ 56.8 µM)	> 400	100 (≈ 122 µM)	0.78 (≈ 0.952 µM)	0.201 (≈ 0.246 µM)	> 0.98	>400	–	>400	–	6.25 (≈ 7.63 µM)	0.782 (≈ 0.955 µM)	50 (≈ 61.1 µM)	16	9	12	Detectability in blood plasma ([7]; 6 hours after intraperitoneal injection, 30 mg/kg): easily detectable; Stability in physiological conditions ([7]; 30 mg/kg intraperitoneal): stable enough
CCCCCCCCC(=O)NC1C(OC2OC(C[C@@H](O)[C@H]3O[C@@H](n4ccc(=O)[nH]c4=O)[C@H](O)[C@@H]3O)C(O)C(O)[C@H]2NC(=O)CCCCCCCC)OC(CO)[C@@H](O)C1O (some centres unmarked) [Compound E4, Di-N-nonanoyl-tunicamycin]	–	–	55 (≈ 64.9 µM)	400 (≈ 472 µM)	100 (≈ 118 µM)	0.024 (≈ 0.0283 µM)	0.0146 (≈ 0.0172 µM)	> 0.06	>400	> 75	>400	> 75	0.78 (≈ 0.921 µM)	0.0723 (≈ 0.0854 µM)	25 (≈ 29.5 µM)	16	13	13	MIC lower than naturally occurring tunicamycin TM ([8]; in some cases): approximately 5 fold
CCCCCCCCCC(=O)NC1C(OC2OC(C[C@@H](O)[C@H]3O[C@@H](n4ccc(=O)[nH]c4=O)[C@H](O)[C@@H]3O)C(O)C(O)[C@H]2NC(=O)CCCCCCCCC)OC(CO)[C@@H](O)C1O (some centres unmarked) [Compound E5, Di-N-decanoyl-tunicamycin]	–	–	53.5 (≈ 61.1 µM)	400 (≈ 457 µM)	100 (≈ 114 µM)	0.39 (≈ 0.446 µM)	0.114 (≈ 0.13 µM)	> 0.39	>400	> 75	>400	> 75	0.39 (≈ 0.446 µM)	0.0461 (≈ 0.0527 µM)	12.5 (≈ 14.3 µM)	10	12	9	–
CCCCCCCCCCC(=O)NC1C(OC2OC(C[C@@H](O)[C@H]3O[C@@H](n4ccc(=O)[nH]c4=O)[C@H](O)[C@@H]3O)C(O)C(O)[C@H]2NC(=O)CCCCCCCCCC)OC(CO)[C@@H](O)C1O (some centres unmarked) [Compound E6, Di-N-undecanoyl-tunicamycin]	–	–	63.2 (≈ 69.9 µM)	400 (≈ 443 µM)	100 (≈ 111 µM)	1.56 (≈ 1.73 µM)	0.852 (≈ 0.943 µM)	> 6.25	>400	> 75	>400	> 75	0.78 (≈ 0.864 µM)	0.0878 (≈ 0.0972 µM)	25 (≈ 27.7 µM)	6	12	7	1-week MIC [8]: 2.8 µg/mL; 2-week MIC [8]: 2.8 µg/mL; MIC ([8]; 168 h, read-out: 1-week MIC): 5.6 µg/mL (≈ 6.2 µM); MIC ([8]; 336 h, read-out: 2-week MIC): 5.6 µg/mL (≈ 6.2 µM)
CCCCCCCCCCCC(=O)NC1C(OC2OC(C[C@@H](O)[C@H]3O[C@@H](n4ccc(=O)[nH]c4=O)[C@H](O)[C@@H]3O)C(O)C(O)[C@H]2NC(=O)CCCCCCCCCCC)OC(CO)[C@@H](O)C1O (some centres unmarked) [Compound E7, Di-N-dodecanoyl-tunicamycin]	–	–	81.9 (≈ 88 µM)	> 400	200 (≈ 215 µM)	100 (≈ 107 µM)	58.9 (≈ 63.2 µM)	> 200	>400	> 75	>400	> 75	50 (≈ 53.7 µM)	1.4 (≈ 1.51 µM)	> 200	–	8	–	–
NC1C(O)[C@H](O)C(CO)O[C@@H]1OC1O[C@H](C[C@@H](O)[C@@H]2O[C@@H](n3ccc(=O)[nH]c3=O)[C@H](O)[C@@H]2O)C(O)C(O)[C@H]1N (stereo partly drawn) [D, α-D-glucosamine-(1″-11′)-tunicamyl Uracil Dihydrochloride]	completely inactive	completely inactive	–	–	–	–	–	–	–	–	–	–	–	–	–	–	–	–	–
